Experimental data taken from patent publication US9994594B2, “Inhibitors of arginase and their therapeutic applications” (MARS, INCORPORATED, priority 2010, dated 2018).
Where a name gives a salt, the structure may show the parent alone.

Legend:
human arginase I (ARG I) = biological target: T1, human arginase I (ARG I) (Homo sapiens, UniProt P05089); test: Inhibition of arginase I, spectrophotometric urea assay at 530 nm; type: biochemical; settings: Formula I compounds, Table 2; read-out: Potency (ARG I)
T1 sequence (P05089 1-322): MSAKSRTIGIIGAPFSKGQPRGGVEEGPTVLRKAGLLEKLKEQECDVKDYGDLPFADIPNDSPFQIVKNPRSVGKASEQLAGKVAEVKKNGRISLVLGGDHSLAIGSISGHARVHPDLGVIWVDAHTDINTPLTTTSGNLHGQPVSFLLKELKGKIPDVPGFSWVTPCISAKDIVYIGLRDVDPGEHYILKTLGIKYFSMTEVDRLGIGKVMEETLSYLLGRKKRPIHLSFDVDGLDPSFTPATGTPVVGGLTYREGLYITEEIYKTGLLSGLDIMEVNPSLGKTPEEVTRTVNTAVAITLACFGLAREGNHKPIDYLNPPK
In short: (§1)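 IC50 was derived by regression of OD530 normalized to uninhibited-enzyme controls against log concentration. Urea from 60-min, 37 °C turnover of L-arginine with manganese sulfate was detected after acid o-phthaldialdehyde/primaquine quench and 10 min colour development. Arginase I and II came from 100 ng/ml stocks in pH 7.4 phosphate with ovalbumin.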

arginase II (ARG II) = biological target: T2, arginase II (ARG II) (Homo sapiens, UniProt P78540); test: Inhibition of arginase II, spectrophotometric urea assay at 530 nm; type: biochemical; settings: Formula I compounds, Table 2; read-out: Potency (ARG II)
T2 sequence (P78540 23-354): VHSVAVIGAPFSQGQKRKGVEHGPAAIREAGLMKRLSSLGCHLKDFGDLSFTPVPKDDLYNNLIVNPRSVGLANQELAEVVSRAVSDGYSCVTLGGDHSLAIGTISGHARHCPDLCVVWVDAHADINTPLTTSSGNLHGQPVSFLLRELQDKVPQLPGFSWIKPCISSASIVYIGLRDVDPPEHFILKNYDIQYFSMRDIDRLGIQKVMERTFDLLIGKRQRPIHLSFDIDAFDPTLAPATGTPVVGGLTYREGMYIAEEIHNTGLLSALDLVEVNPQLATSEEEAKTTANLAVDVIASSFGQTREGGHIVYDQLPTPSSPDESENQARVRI
In short: as §1

Row | SMILES | IC50 (human arginase I (ARG I)) [nM] | IC50 (arginase II (ARG II)) [nM]
1 | NC(CCCCB(O)O)(CCOc1ccc(Cl)cc1Cl)C(=O)O (centres unmarked) [compound 94, 2-Amino-6-borono-2-[2-(2,4-dichlorophenoxy)-ethyl]-hexanoic acid hydrochloride] | > 5000 | > 5000
2 | NC(CCCCB(O)O)(CCOc1cccc(C(F)(F)F)c1)C(=O)O (centres unmarked) [compound 95, 2-Amino-6-borono-2-[2-(3-trifluoromethylphenoxy)-ethyl]-hexanoic acid hydrochloride] | 2000 to 5000 | 2000 to 5000
3 | NC(CCCCB(O)O)(CCCOc1ccc(Cl)cc1)C(=O)O (centres unmarked) [compound 96, 2-Amino-6-borono-2-[3-(4-chlorophenoxy)-propyl]-hexanoic acid hydrochloride] | 1000 to 2000 | 1000 to 2000
4 | CC(N)(CCCCB(O)O)C(=O)O (centres unmarked) [compound 97, 2-Amino-6-borono-2-methylhexanoic acid hydrochloride] | 2000 to 5000 | > 5000
5 | NC(CCCCB(O)O)(Cc1cnc[nH]1)C(=O)O (centres unmarked) [compound 102, 2-((1H-imidazol-5-yl)methyl)-2-amino-6-boronohexanoic acid dihydrochloride] | 2000 to 5000 | 2000 to 5000
6 | NC(CCCCB(O)O)(CC(=O)O)C(=O)O (centres unmarked) [compound 106, 2-amino-2-(4-boronobutyl)succinic acid hydrochloride] | > 5000 | > 5000
7 | CC(C)n1cncc1CC(N)(CCCCB(O)O)C(=O)O (centres unmarked) [compound 107, 2-amino-6-borono-2-((1-isopropyl-1H-imidazol-5-yl)methyl)hexanoic acid dihydrochloride] | > 5000 | > 5000
8 | CCC(O)C(N)(CCCCB(O)O)C(=O)O (centres unmarked) [compound 108, 2-amino-6-borono-2-(1-hydroxypropyl)hexanoic acid hydrochloride] | 1000 to 2000 | 2000 to 5000
9 | NC(CCCCB(O)O)(C(=O)O)C(O)C1CCNCC1 (centres unmarked) [compound 109, 2-amino-6-borono-2-(hydroxy(piperidin-4-yl)methyl)hexanoic acid dihydrochloride] | 2000 to 5000 | > 5000
10 | NC(CCCCB(O)O)(C(=O)O)C(O)C1CCCNC1 (centres unmarked) [compound 110, 2-amino-6-borono-2-(hydroxy(piperidin-3-yl)methyl)hexanoic acid dihydrochloride] | 1000 to 2000 | 2000 to 5000
11 | NC(CCCCB(O)O)(C(=O)O)C(O)CCC(F)(F)F (centres unmarked) [compound 111, 2-amino-2-(4-boronobutyl)-6,6,6-trifluoro-3-hydroxyhexanoic acid hydrochloride] | 2000 to 5000 | 2000 to 5000
12 | NC(CCCCB(O)O)(C(=O)O)C(O)c1cccnc1 (centres unmarked) [compound 112, 2-amino-6-borono-2-(hydroxy(pyridin-3-yl)methyl)hexanoic acid dihydrochloride] | 2000 to 5000 | 2000 to 5000
13 | NC(CCCCB(O)O)C(=O)c1ccccc1 (centres unmarked) [compound 114, 5-amino-6-oxo-6-phenylhexylboronic acid hydrochloride] | > 5000 | > 5000
14 | NC(CCCCB(O)O)(CCc1ccccn1)C(=O)O (centres unmarked) [compound 116, 2-amino-6-borono-2-(2-(pyridin-2-yl)ethyl)hexanoic acid dihydrochloride] | 2000 to 5000 | 2000 to 5000
15 | CC(C)C(=O)NCCC(N)(CCCCB(O)O)C(=O)O (centres unmarked) [compound 120, 2-amino-6-borono-2-(2-isobutyramidoethyl)hexanoic acid hydrochloride] | 1000 to 2000 | 2000 to 5000
16 | NC(CCCCB(O)O)(CC1CNC1)C(=O)O (centres unmarked) [compound 123, 2-amino-2-(azetidin-3-ylmethyl)-6-boronohexanoic acid dihydrochloride] | 2000 to 5000 | > 5000
17 | CCCC1CCN(CCC(N)(CCCCB(O)O)C(=O)O)CC1 (centres unmarked) [compound 129, 2-amino-6-borono-2-(2-(4-propylpiperidin-1-yl)ethyl)hexanoic acid dihydrochloride] | 251 to 1000 | 1000 to 2000

Second part, the compound after the results:

Row | IC50 (human arginase I (ARG I)) [nM] | IC50 (arginase II (ARG II)) [nM] | SMILES
18 | 0.1 to 250 | 251 to 1000 | NC(CCCCB(O)O)(C(=O)O)C(O)C1CNC1 (centres unmarked) [compound 113, 2-amino-2-(azetidin-3-yl(hydroxy)methyl)-6-boronohexanoic acid dihydrochloride]
19 | 251 to 1000 | 2000 to 5000 | NC(CCCCB(O)O)(CC1CN(Cc2ccc(Cl)c(Cl)c2)C1)C(=O)O (centres unmarked) [compound 117, 2-amino-6-borono-2-((1-(3,4-dichlorobenzyl)azetidin-3-yl)methyl)hexanoic acid dihydrochloride]
20 | 251 to 1000 | 251 to 1000 | NC(CCCCB(O)O)(CC1CN(CCc2ccc(Cl)cc2Cl)C1)C(=O)O (centres unmarked) [compound 118, 2-amino-6-borono-2-((1-(2,4-dichlorophenethyl)azetidin-3-yl)methyl)hexanoic acid dihydrochloride]
21 | 251 to 1000 | 1000 to 2000 | NC(CCCCB(O)O)(CCNC(=S)Nc1ccc(Cl)c(Cl)c1)C(=O)O (centres unmarked) [compound 119, 2-amino-6-borono-2-(2-(3-(3,4-dichlorophenyl)thioureido)ethyl)hexanoic acid hydrochloride]
22 | 251 to 1000 | 251 to 1000 | NC(CCCCB(O)O)(CCN1CCC(c2ccc(Cl)cc2)CC1)C(=O)O (centres unmarked) [compound 121, 2-amino-6-borono-2-(2-(4-(4-chlorophenyl)piperidin-1-yl)ethyl)hexanoic acid dihydrochloride]
23 | 251 to 1000 | 251 to 1000 | NC(CCCCB(O)O)(CCN1CCC(Cc2ccc(Cl)cc2)CC1)C(=O)O (centres unmarked) [compound 122, 2-amino-6-borono-2-(2-(4-(4-chlorobenzyl)piperidin-1-yl)ethyl)hexanoic acid dihydrochloride]
24 | 251 to 1000 | 2000 to 5000 | CC(CC(N)(CCCCB(O)O)C(=O)O)N1CCC(Cc2ccccc2)CC1 (centres unmarked) [compound 124, 2-amino-2-(2-(4-benzylpiperidin-1-yl)propyl)-6-boronohexanoic acid dihydrochloride]
25 | 251 to 1000 | 251 to 1000 | NC(CCCCB(O)O)(CCN1CCC(Cc2ccccc2)CC1)C(=O)O (centres unmarked) [compound 125, 2-amino-2-(2-(4-benzylpiperidin-1-yl)ethyl)-6-boronohexanoic acid dihydrochloride]
26 | 251 to 1000 | 251 to 1000 | NC(CCCCB(O)O)(CCN1CCC(Cc2ccc(C(F)(F)F)cc2)CC1)C(=O)O (centres unmarked) [compound 126, 2-amino-6-borono-2-(2-(4-(4-(trifluoromethyl)benzyl)piperidine-1-yl)ethyl)hexanoic acid dihydrochloride]
27 | 251 to 1000 | 251 to 1000 | NC(CCCCB(O)O)(CCN1CCC(Cc2ccc(F)cc2)CC1)C(=O)O (centres unmarked) [compound 127, 2-amino-6-borono-2-(2-(4-(4-fluorobenzyl)piperidin-1-yl)ethyl)hexanoic acid dihydrochloride]
28 | 251 to 1000 | 1000 to 2000 | CC1(C)CCN(CCC(N)(CCCCB(O)O)C(=O)O)CC1 (centres unmarked) [compound 128, 2-amino-6-borono-2-(2-(4,4-dimethylpiperidin-1-yl)ethyl)hexanoic acid dihydrochloride]
29 | 0.1 to 250 | 251 to 1000 | CCN1Cc2ccccc2CC1CCC(N)(CCCCB(O)O)C(=O)O (centres unmarked) [compound 130, 2-amino-6-borono-2-(2-(2-ethyl-1,2,3,4-tetrahydroisoquinolin-3-yl)ethyl)hexanoic acid dihydrochloride]
30 | 0.1 to 250 | 251 to 1000 | NC(CCCCB(O)O)(CCC1Cc2ccccc2CN1Cc1ccc(Cl)cc1)C(=O)O (centres unmarked) [compound 132, 2-amino-6-borono-2-(2-(2-(4-chlorobenzyl)-1,2,3,4-tetrahydroisoquinolin-3-yl)ethyl)hexanoic acid dihydrochloride]
31 | 0.1 to 250 | 0.1 to 250 | CC(C)CCN1Cc2ccccc2CC1CCC(N)(CCCCB(O)O)C(=O)O (centres unmarked) [compound 133, 2-amino-6-borono-2-(2-(2-isopentyl-1,2,3,4-tetrahydroisoquinolin-3-yl)ethyl)hexanoic acid dihydrochloride]
32 | 0.1 to 250 | 251 to 1000 | NC(CCCCB(O)O)(CCC1Cc2ccccc2CN1CC1CCCCC1)C(=O)O (centres unmarked) [compound 134, 2-amino-6-borono-2-(2-(2-(cyclohexylmethyl)-1,2,3,4-tetrahydroisoquinolin-3-yl)ethyl)hexanoic acid dihydrochloride]
33 | 0.1 to 250 | 251 to 1000 | CC(C)CN1Cc2ccccc2CC1CCC(N)(CCCCB(O)O)C(=O)O (centres unmarked) [compound 135, 2-amino-6-borono-2-(2-(2-isobutyl-1,2,3,4-tetrahydroisoquinolin-3-yl)ethyl)hexanoic acid dihydrochloride]
34 | 0.1 to 250 | 0.1 to 250 | CNC(CCCCB(O)O)(CCCNCc1ccc(Cl)c(Cl)c1)C(=O)O (centres unmarked) [compound 136, 6-borono-2-(3-(3,4-dichlorobenzylamino)propyl)-2-(methylamino)hexanoic acid dihydrochloride]
